Results as given in patent US20250059188A1, “ARYLSULPHONAMIDE COMPOUNDS” (Anaxis Pharma Pty Ltd, priority 2021, published 2025).

What was measured:
mouse MLKL (full length) = mouse MLKL (full length) (Mus musculus (Mouse), UniProt Q9D2Y4); experiment: KINOMEscan binding assay, mouse MLKL (full length); details: equilibrium dissociation constant
Experimental: Binding affinity of the test compounds for human MLKL (full length), mouse MLKL (full length), human RIPK1 and human RIPK3 was determined using the KINOMEscan™ technology developed by DiscoverX (USA; http://www.discoverx.com). The assay was conducted according to manufacturer instructions.
Kinase assays. For most assays, kinase-tagged T7 phage strains were grown in parallel in 24-well blocks in an E. coli host derived from the BL21 strain. E. coli were grown to log-phase and infected with T7 phage from a frozen stock (multiplicity of infection=0.4) and incubated with shaking at 32° C. until lysis (90-150 minutes). The lysates were centrifuged (6,000×g) and filtered (0.2 μm) to remove cell debris. The remaining kinases were produced in HEK-293 cells and subsequently tagged with DNA for qPCR detection. […] The liganded beads were blocked with excess biotin and washed with blocking buffer (SeaBlock (Pierce), 1% BSA, 0.05% Tween 20, 1 mM DTT) to remove unbound ligand and to reduce non-specific phage binding. […] All reactions were performed in polypropylene 384-well plates in a final volume of 20 μL. […] The kinase concentration in the eluates was measured by qPCR.
An 11-point 3-fold serial dilution of each test compound was prepared in 100% DMSO at 100× final test concentration and subsequently diluted to 1× in the assay (final DMSO concentration=1%). Most Kos were determined using a compound top concentration=30,000 nM.
KD for each test compound was calculated with a standard dose-response curve using the Hill equation (equation (1)): […]
The Hill Slope was set to −1.
Curves were fitted using a non-linear least square fit with the Levenberg-Marquardt algorithm.

human MLKL (full length) = human MLKL (full length) (Homo sapiens (Human), UniProt Q8NB16); experiment: KINOMEscan binding assay, human MLKL (full length); details: equilibrium dissociation constant
Procedure, shortened: (§1)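 Tagged kinase + immobilized ligand beads + compound; eluted kinase quantified by qPCR. Kinase source: T7 phage lysate (BL21-derived E. coli, 32 °C) or HEK-293 with DNA tag. 11-pt 3-fold series, 1% DMSO, top 30,000 nM (most). Hill fit, slope −1 → Kd.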

human RIPK3 = human RIPK3 (Homo sapiens (Human), UniProt Q9Y572); experiment: KINOMEscan binding assay, human RIPK3; details: equilibrium dissociation constant
Procedure, shortened: as §1

human RIPK1 = human RIPK1 (Homo sapiens (Human), UniProt Q13546); experiment: KINOMEscan binding assay, human RIPK1; details: equilibrium dissociation constant
Procedure, shortened: as §1

[1] = test system: Immortalised Mouse Dermal Fibroblasts (MDFs); experiment: Inhibition of TSI induced necroptosis in mouse dermal fibroblasts (CellTitre-Glo); details: Mus musculus, Fibroblast, 3 h, MDF cells, TSI cocktail (TNF, Smac mimetic, IDN-6556), read-out: Inhibition of TSI-induced necroptosis (IC50 cell-based assay) in MDF
Experimental: Cellular Assay: Screening Compounds for Inhibition of TSI Induced Necroptosis in, 384 well plate format. • Cell Line ID: Immortalised Mouse Dermal Fibroblasts (MDFs). • Cell Concentration (cells/well): Final cell density is 2200 cells per well. • Cell growth medium: DMEM medium+7.4% Fetal Bovine Serum (FBS). Cells are cultured in Corning 150 cm^2 tissue culture flasks with vented caps at 37° C./10% CO2. • Incubation: Plates were incubated for 30 minutes following addition of compounds and then 3 hours incubation with death stimuli (TSI cocktail) at 37° C./10% CO2 in a humidified incubator. • Compound concentration: 36 μM starting concentration, 1:3 dilution, 10 point • DMSO final concentration (% v/v): 0.3%. Compounds in TSI Cocktail (T: TNF; S: Smac Mimetic; I: IDN-6556) and their Final Concentrations: • rhTNF (100 ng/ml) • Compound A (500 nM)—Smac mimetic, Tetralogic and SYNthesis med chem • IDN-6556 (10 μM)—Selleckchem (S7775)
The cellular assay was carried out according to the following steps: • 1. Each well was prepared by sequential addition of: • a. 40 μL of cell suspension (5.5×10^4 cells/mL) was added to each well to provide a final cell concentration of 2,200 cells per well. • b. After 24 hours, DMSO (control; columns 1-2 and 23-24) or compound in DMSO—addition was performed using acoustic transfer of nL volumes of stock compound to give final test concentrations of 36, 12, 4, 1.3, 0.44, 0.148, 0.049, 0.016, 0.005 and 0.002 μM. All wells were backfilled with DMSO to a final total volume in the well of 100 nL. • c. Following compound/DMSO addition in step (b), Plates were incubated for 30 minutes at 37° C./10% CO2 in a humidified incubator and then 10 μL of 5×TSI cocktail (except to positive controls; columns 2 and 24) was added to each well. • 2. After 3 hours, plate was removed from the 37° C. incubator and equilibrated to room temperature for 15 minutes. • 3. 15 μL of room temperature CellTitre-Glo2™ (Promega™) was added to each well. • 4. Shook plates for 2 minutes (˜600 rpm) and incubated at room temperature for 15 minutes to allow signal to stabilise. • 5. Read luminescence readout on a plate reader.
Percent viability was calculated for each compound according to equation (2): […]
10 point titration curves were fitted with the 4 parameter logistic nonlinear regression model and the IC50 reported reflect the inflection point of the curve for curve fitting.
• Assay involving the TSI cocktail (T: TNF; S: Smac mimetic; I: IDN-6556): TSI treatment ensures that cells specifically undergo necroptotic cell death. TNF activates the TNF receptor, Smac mimetic directs the signal away from proinflammatory signaling and toward the RIPK1/RIPK3-mediated cell death pathways, and IDN-6556 (Caspase inhibitor) ensures that the apoptotic response is blocked leaving only the programmed necrosis response. The compounds' activity (solution in DMSO) tested in this TSI-induced assay was evaluated by determining the number of viable cells in culture by measuring the amount of ATP present as measured by CelltiterGlo.

mouse MLKL (full length), sequence (Q9D2Y4 whole entry): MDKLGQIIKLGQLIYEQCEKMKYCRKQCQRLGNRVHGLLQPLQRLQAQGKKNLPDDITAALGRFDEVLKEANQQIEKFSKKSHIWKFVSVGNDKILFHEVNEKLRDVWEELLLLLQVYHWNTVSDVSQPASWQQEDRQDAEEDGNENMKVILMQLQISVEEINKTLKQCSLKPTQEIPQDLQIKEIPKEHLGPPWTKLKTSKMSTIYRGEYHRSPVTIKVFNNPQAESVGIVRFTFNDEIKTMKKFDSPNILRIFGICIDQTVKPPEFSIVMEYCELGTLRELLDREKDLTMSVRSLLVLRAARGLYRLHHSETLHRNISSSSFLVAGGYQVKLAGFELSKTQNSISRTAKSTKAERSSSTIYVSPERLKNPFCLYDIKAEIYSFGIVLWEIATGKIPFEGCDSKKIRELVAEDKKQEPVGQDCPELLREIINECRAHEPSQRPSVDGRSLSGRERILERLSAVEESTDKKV
human RIPK3, sequence (Q9Y572 whole entry): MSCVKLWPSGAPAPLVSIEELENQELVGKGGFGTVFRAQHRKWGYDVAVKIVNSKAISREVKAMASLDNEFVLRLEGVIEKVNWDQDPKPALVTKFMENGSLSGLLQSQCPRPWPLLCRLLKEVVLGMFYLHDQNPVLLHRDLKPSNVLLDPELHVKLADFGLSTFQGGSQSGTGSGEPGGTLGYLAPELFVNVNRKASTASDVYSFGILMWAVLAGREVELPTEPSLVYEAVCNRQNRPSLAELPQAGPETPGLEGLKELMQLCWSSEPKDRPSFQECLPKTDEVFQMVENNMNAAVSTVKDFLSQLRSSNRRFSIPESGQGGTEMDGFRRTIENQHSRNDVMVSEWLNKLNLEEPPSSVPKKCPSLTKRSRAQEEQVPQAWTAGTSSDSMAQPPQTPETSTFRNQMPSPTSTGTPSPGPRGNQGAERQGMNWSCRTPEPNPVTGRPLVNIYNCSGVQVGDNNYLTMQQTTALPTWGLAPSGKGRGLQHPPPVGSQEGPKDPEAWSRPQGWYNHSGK
human MLKL (full length), sequence (Q8NB16 whole entry): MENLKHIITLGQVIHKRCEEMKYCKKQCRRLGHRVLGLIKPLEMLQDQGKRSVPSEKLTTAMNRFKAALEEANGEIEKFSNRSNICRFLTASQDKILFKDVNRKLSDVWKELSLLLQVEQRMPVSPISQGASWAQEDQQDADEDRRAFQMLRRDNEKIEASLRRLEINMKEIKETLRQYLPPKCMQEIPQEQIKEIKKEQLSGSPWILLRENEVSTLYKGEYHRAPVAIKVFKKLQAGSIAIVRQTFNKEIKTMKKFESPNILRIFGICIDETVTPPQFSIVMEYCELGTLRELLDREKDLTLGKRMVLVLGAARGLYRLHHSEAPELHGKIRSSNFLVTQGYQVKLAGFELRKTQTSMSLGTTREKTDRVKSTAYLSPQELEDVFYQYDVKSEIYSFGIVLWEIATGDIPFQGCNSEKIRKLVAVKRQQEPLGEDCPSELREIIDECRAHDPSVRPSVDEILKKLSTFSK
human RIPK1, sequence (Q13546 whole entry): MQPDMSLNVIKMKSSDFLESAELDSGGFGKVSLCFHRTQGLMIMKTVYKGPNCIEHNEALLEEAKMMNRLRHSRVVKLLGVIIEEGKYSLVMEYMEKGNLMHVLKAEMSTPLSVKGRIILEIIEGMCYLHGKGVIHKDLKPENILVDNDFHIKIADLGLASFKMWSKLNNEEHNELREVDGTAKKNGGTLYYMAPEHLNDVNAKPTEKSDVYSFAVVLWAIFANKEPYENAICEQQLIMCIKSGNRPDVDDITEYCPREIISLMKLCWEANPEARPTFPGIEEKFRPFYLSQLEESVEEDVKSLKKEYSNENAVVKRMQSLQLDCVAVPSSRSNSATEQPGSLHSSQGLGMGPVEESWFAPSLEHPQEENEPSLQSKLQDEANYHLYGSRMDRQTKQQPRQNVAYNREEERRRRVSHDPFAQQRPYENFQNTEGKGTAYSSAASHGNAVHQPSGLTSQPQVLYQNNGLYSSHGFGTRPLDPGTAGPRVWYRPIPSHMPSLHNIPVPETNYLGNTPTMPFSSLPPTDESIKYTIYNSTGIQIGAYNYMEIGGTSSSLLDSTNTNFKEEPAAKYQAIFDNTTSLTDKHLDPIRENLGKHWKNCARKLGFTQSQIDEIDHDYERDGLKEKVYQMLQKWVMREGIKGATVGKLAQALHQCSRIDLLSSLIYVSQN

In the case of `Nc1ncc(-c2cnn(C3CCOCC3)c2)c2occ(-c3ccc(NS(=O)(=O)CC(F)(F)F)c(OCc4ccc(F)cc4)c3)c12` [Compound 11, N-(4-(4-amino-7-(1-(tetrahydro-2H-pyran-4-yl)-1H-pyrazol-4-yl)furo[3,2-c]pyridin-3-yl)-2-((4-fluorobenzyl)oxy)phenyl)-2,2,2-trifluoroethane-1-sulfonamide], the Kd (mouse MLKL (full length)) is reported as 1 to 100 nM, the Kd (human MLKL (full length)) is reported as 1 to 100 nM and the Kd (human RIPK3) is reported as > 10000 nM. For the same compound, the Kd (human RIPK1) was > 10000 nM and the IC50 [1] was 1000 to 10000 nM.
